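Exposure lasted 48 hours, with cells grown in 96-well plates and compounds tested at five concentrations. The concentration for full growth arrest is given as TGI.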
Experiments:
Experiment in all cases: DTP human tumour cell line panel, 48 h
A498 renal = tested on: A498 renal
IGROV1 ovarian = tested on: IGROV1 ovarian
NCI-H23 lung = tested on: NCI-H23 lung
NCI-H522 lung = tested on: NCI-H522 lung
OVCAR-4 ovarian = tested on: OVCAR-4 ovarian
RXF 393 renal = tested on: RXF 393 renal
SF-268 CNS = tested on: SF-268 CNS
SK-MEL-5 melanoma = tested on: SK-MEL-5 melanoma
NCI-H226 lung = tested on: NCI-H226 lung

Structure (SMILES) | TGI (A498 renal) [µM] | TGI (IGROV1 ovarian) [µM] | TGI (NCI-H23 lung) [µM] | TGI (NCI-H522 lung) [µM] | TGI (OVCAR-4 ovarian) [µM] | TGI (RXF 393 renal) [µM] | TGI (SF-268 CNS) [µM] | TGI (SK-MEL-5 melanoma) [µM] | TGI (NCI-H226 lung) [µM]
C[N+](C)(C)CC(=O)N/N=C(/Cc1cc(=O)oc2cc(O)ccc12)C(=O)Nc1ccc(Cl)cc1 | > 100 | > 100 | > 100 | > 100 | > 100 | > 100 | > 100 | > 100 | –
CC1=C(C(=O)Nc2ccccc2)C(c2ccc(Cl)c(Cl)c2)C(C(=O)Nc2ccccc2)=C(C)N1 | 33.4 | 37.1 | 27 | 25.8 | 27.7 | 21.7 | 24.9 | 28.7 | –
CCC(C)(C)n1c(C)nc2c1C(=O)c1ccccc1C2=O | – | > 100 | 60.4 | 87.5 | > 100 | 59.4 | > 100 | 33.7 | > 100
CCCCCCCC(=O)OCC1OC(n2cc(F)c(=O)[nH]c2=O)C(N)C(OC(=O)CCCCCCC)C1O (stereo not given) | 39.1 | 47.7 | 35.9 | 28.9 | 29 | 31.9 | 35.4 | 22.3 | –
CN1Nc2ccccc2CC1=O | > 100 | > 100 | > 100 | – | > 100 | – | > 100 | > 100 | > 100
CCCN(CCC)c1c([N+](=O)[O-])cc(C(=O)N(CC)CC)cc1[N+](=O)[O-] | – | > 100 | 40.8 | 28.6 | – | 63 | > 100 | 26.8 | 71.3
O=C1c2cccc3cccc(c23)C(=O)N1CCN(CCO)CCO | 41.3 | > 100 | 74.8 | – | 66 | 92.2 | > 100 | 33.6 | 40.1
FC(F)(F)c1ccc2nc(NCc3ccccc3)c(-c3ccccc3)nc2c1 | – | – | > 100 | – | – | 71.5 | > 100 | – | > 100
O/N=C1\CCCCC1C(NO)c1ccccc1 (stereo not given) | > 100 | > 100 | > 100 | > 100 | > 100 | > 100 | > 100 | – | –
O=C1C=C(c2c(O)ccc3ccccc23)c2cc(O)ccc2C1=O | – | 30.3 | 29.7 | – | 26.1 | 29.1 | 32.6 | 28.6 | 44.1
CCCCCCCCCCCC[N+]12CC[N+](CCN)(CC1)CC2 | – | 39.7 | > 100 | > 100 | > 100 | 18.1 | > 100 | > 100 | > 100

— PubChem BioAssay (NCI)
